Data as given in ChEMBL document CHEMBL6153155, “Novel Cyclohexyl Amido Acid Antagonists of Lysophosphatidic Acid Type 1 Receptor for the Treatment of Pulmonary Fibrosis” (ACS Med Chem Lett, 2025).
Converted amounts (≈) assume the structure as drawn.

How the values were obtained:
[1] = Lipophilicity, logD of compound at pH 7.4 by chromatographic hydrophobicity index method; assay type: physicochemical; settings: buffer
[2] = Metabolic stability in human liver microsomes assessed as intrinsic clearance measured per mg of protein at 0.5 uM measured upto 45 mins in presence of NADPH regenerating system by HPLC-MS/MS analysis; assay type: ADME, Microsome; settings: read-out: CLH
BSEP = BSEP (Homo sapiens, UniProt O95342); assay: Inhibition of BSEP in cryopreserved sandwich-cultured human hepatocytes by measuring reduction in TCA biliary clearance using taurocholic acid as substrate at 50 uM relative to control; assay type: cell-based, Hepatocyte; settings: cryopreserved sandwich-cultured hepatocytes, probe taurocholic acid
[3] = Aqueous solubility of the compound at pH 7.4; assay type: physicochemical; settings: buffer
[4] = Drug uptake in mouse lung at 30 mg/kg, po measured upto 24 hrs; assay type: ADME, organism-based; settings: in vivo
Bile salt export pump = Bile salt export pump (Homo sapiens, UniProt O95342); assay: Inhibition of BSEP in cryopreserved sandwich-cultured human hepatocytes by measuring reduction in TCA biliary clearance using taurocholic acid as substrate; assay type: cell-based, Hepatocyte
Mus musculus = assay: Inhibition of LPA-stimulated histamine release in male CD1 mouse plasma assessed as effective dose administered as po dose pretreated for 30 mins followed by LPA addition measured after 2 mins by enzyme immunoassay; assay type: functional; settings: 32 min
[5] = biological target: Lysophosphatidic acid receptor 4 (Homo sapiens, UniProt Q99677); assay: Antagonist activity at human LPA4 expressed in CHO cells in presence of IBMX pretreated for 30 mins followed by LPA addition and measured after 1 hrs by cAMP accumulation assay; assay type: functional, cell-based
[6] = biological target: Phosphatidylcholine translocator ABCB4 (Homo sapiens, UniProt P21439); assay: Inhibition of MDR3 in human hepatocytes in the presence of TCA incubated for 3 hrs by LC-MS/MS; assay type: cell-based, Hepatocyte
[7] = biological target: ATP-binding cassette sub-family C member 2 (Homo sapiens, UniProt Q92887); assay: Inhibition of MRP2 (unknown origin) in presence of ATP by membrane vesicular transport assay; assay type: cell membranes, Membrane vesicle
[8] = biological target: ATP-binding cassette sub-family C member 3 (Homo sapiens, UniProt O15438); assay: Inhibition of MRP3 (unknown origin) in presence of ATP by membrane vesicular transport assay; assay type: cell membranes, Membrane vesicle
[9] = biological target: T1, Solute carrier organic anion transporter family member 1B3 (Homo sapiens, UniProt Q9NPD5); assay: Inhibition of human OATP1B3 in HEK293 cells; assay type: cell-based
T1 sequence (Q9NPD5 whole entry): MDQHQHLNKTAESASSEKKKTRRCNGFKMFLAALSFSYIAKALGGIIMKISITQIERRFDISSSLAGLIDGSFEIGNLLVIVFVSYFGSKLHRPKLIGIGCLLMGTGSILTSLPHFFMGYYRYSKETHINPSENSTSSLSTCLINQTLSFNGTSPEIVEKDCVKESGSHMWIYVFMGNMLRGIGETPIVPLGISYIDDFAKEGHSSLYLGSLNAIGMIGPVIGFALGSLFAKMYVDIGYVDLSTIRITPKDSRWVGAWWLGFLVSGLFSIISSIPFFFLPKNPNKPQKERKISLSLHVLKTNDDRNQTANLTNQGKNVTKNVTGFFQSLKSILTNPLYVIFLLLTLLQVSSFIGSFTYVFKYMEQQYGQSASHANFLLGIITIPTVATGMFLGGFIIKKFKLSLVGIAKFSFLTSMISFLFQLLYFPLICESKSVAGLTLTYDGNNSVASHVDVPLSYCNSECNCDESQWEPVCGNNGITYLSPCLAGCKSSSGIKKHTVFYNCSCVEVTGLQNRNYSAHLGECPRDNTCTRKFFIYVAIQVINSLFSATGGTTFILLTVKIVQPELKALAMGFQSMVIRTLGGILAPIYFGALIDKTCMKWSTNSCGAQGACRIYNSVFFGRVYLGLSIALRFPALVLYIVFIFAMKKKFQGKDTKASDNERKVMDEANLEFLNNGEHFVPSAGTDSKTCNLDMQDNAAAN

[10] = Toxicity in cynomolgus monkey assessed as drug tolerance at 12.5 to 100 mg/kg/day, po bid measured after 4 days; assay type: organism-based, Macaca fascicularis; settings: in vivo, 96 h, dose 12.5-100 mg/kg/day, time 4 day
[11] = Toxicity in cynomolgus monkey assessed as piloerection at 210 mg/kg/day, po bid measured after 4 days; assay type: organism-based, Macaca fascicularis; settings: in vivo, 96 h, time 4 day
[12] = Toxicity in cynomolgus monkey assessed as abnormally cold to touch at 210 mg/kg/day, po bid measured after 4 days; assay type: organism-based, Macaca fascicularis; settings: in vivo, 96 h, time 4 day
[13] = Toxicity in cynomolgus monkey assessed as partially closed eyelids at 210 mg/kg/day, po bid measured after 4 days; assay type: organism-based, Macaca fascicularis; settings: in vivo, 96 h, time 4 day
[14] = Toxicity in cynomolgus monkey assessed as abnormal vocalization at 210 mg/kg/day, po bid measured after 4 days; assay type: organism-based, Macaca fascicularis; settings: in vivo, 96 h, time 4 day
[15] = Toxicity in cynomolgus monkey assessed as decreased activity at 210 mg/kg/day, po bid measured after 4 days; assay type: organism-based, Macaca fascicularis; settings: in vivo, 96 h, time 4 day
[16] = Toxicity in cynomolgus monkey assessed as appearance of sinusoidal leukocytosis in liver at 50 mg/kg, po bid by microscopic analysis; assay type: organism-based, Macaca fascicularis; settings: in vivo
[17] = Clearance in female C57BL/6J mouse at 2 mg/kg, iv measured after 24 hrs by UPLC-MS/MS analysis; assay type: ADME, organism-based; settings: in vivo
[18] = Volume of distribution at steady state in female C57BL/6J mouse at 2 mg/kg, iv measured after 24 hrs by UPLC-MS/MS analysis; assay type: ADME, organism-based; settings: in vivo, read-out: Vdss
[19] = Half life in female C57BL/6J mouse at 2 mg/kg, iv measured after 24 hrs by UPLC-MS/MS analysis; assay type: ADME, organism-based; settings: in vivo
[20] = Unbound AUClast in female C57BL/6J mouse plasma at 30 mg/kg, po measured after 24 hrs by UPLC-MS/MS analysis; assay type: ADME, organism-based; settings: in vivo
[21] = Tlast in female C57BL/6J mouse plasma at 30 mg/kg, po measured after 24 hrs by UPLC-MS/MS analysis; assay type: ADME, organism-based; settings: in vivo
[22] = Total Cmax in female C57BL/6J mouse lung at 30 mg/kg, po measured after 24 hrs by UPLC-MS/MS analysis; assay type: ADME, organism-based
[23] = Total AUClast in female C57BL/6J mouse lung at 30 mg/kg, po measured after 24 hrs by UPLC-MS/MS analysis; assay type: ADME, organism-based; settings: in vivo
[24] = Unbound AUClast in female C57BL/6J mouse lung at 30 mg/kg, po measured after 24 hrs by UPLC-MS/MS analysis; assay type: ADME, organism-based; settings: in vivo
[25] = Tlast in female C57BL/6J mouse lung at 30 mg/kg, po measured after 24 hrs by UPLC-MS/MS analysis; assay type: ADME, organism-based; settings: in vivo

Sequence of Phosphatidylcholine translocator ABCB4 (P21439 whole entry): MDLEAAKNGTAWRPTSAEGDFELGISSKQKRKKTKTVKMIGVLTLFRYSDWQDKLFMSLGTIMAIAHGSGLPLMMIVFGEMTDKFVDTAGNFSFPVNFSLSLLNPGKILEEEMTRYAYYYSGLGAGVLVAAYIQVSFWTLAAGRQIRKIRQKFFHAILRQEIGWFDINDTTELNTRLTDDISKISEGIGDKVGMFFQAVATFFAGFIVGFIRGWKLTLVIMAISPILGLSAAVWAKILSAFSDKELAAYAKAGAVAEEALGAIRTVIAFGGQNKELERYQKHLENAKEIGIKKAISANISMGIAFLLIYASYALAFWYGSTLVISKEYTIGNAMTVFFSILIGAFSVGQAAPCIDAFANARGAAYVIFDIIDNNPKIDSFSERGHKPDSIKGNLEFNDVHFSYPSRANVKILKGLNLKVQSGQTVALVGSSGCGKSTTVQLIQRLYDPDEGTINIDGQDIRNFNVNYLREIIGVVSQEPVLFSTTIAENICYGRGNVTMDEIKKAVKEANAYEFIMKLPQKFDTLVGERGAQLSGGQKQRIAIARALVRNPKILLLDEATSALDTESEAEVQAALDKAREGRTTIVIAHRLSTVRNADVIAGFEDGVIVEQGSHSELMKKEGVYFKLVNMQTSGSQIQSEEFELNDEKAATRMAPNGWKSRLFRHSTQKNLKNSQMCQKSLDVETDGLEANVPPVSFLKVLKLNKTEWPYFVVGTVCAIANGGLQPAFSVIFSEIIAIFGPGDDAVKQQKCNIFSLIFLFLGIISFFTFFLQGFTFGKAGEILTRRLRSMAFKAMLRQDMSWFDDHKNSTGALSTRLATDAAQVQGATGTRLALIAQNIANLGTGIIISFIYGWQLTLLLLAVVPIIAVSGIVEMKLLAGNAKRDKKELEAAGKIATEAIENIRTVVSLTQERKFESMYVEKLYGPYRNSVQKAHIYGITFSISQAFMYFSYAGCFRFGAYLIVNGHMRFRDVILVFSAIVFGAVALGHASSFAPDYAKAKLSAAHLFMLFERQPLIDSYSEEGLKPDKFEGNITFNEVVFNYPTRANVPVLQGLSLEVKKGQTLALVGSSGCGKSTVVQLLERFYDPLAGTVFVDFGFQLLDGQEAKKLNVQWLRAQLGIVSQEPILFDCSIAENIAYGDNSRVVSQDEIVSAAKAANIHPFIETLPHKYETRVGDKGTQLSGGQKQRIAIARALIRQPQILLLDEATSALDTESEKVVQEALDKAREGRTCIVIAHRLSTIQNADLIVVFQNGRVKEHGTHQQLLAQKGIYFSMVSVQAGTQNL
Sequence of ATP-binding cassette sub-family C member 3 (O15438 whole entry): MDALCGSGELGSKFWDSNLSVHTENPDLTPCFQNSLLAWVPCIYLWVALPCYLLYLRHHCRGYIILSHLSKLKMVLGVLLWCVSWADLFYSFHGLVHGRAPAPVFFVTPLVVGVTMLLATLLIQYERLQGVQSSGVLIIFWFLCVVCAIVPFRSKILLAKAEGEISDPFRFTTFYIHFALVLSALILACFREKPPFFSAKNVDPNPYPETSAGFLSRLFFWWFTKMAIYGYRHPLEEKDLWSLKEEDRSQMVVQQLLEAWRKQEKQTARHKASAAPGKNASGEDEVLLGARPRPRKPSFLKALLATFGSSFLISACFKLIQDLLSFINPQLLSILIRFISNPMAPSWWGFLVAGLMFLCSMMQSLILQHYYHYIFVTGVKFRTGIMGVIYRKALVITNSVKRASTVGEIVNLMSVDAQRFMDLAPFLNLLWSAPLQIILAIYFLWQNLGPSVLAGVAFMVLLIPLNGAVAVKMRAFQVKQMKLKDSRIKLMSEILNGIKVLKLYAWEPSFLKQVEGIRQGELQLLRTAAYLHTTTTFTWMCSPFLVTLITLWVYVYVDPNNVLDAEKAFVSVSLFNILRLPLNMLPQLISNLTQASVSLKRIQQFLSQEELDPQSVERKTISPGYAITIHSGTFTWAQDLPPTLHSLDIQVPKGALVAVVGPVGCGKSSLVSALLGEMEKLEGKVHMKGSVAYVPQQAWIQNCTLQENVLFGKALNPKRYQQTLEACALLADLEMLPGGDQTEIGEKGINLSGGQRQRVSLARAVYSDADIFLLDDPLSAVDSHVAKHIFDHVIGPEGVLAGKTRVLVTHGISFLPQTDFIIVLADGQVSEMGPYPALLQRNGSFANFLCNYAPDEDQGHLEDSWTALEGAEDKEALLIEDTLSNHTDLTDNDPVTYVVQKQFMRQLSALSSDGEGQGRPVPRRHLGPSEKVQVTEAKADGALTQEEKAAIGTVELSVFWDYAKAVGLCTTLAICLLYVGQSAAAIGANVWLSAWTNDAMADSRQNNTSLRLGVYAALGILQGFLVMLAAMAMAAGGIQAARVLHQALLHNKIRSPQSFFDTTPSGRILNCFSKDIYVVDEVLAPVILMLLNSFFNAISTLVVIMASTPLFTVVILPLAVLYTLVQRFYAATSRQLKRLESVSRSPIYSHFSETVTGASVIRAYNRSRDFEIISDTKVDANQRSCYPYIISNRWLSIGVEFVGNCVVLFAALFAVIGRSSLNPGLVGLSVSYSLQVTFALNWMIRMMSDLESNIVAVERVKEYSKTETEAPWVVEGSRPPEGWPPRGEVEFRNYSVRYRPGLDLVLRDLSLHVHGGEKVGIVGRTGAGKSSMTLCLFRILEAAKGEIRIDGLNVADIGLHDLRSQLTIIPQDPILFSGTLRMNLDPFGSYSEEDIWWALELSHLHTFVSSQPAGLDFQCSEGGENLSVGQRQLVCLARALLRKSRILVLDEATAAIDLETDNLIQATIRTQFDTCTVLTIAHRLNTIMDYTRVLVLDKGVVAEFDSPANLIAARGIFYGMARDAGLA
Sequence of Lysophosphatidic acid receptor 4 (Q99677 whole entry): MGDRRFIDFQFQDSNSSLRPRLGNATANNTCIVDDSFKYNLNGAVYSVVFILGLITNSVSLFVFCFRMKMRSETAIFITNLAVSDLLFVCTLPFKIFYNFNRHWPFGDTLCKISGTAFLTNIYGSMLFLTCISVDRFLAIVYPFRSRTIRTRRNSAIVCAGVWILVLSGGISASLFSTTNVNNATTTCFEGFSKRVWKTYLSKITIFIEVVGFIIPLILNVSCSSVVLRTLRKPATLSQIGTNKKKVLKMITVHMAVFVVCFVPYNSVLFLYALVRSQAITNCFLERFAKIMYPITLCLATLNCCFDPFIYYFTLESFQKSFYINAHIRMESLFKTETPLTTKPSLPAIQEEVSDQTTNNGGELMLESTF
Sequence of BSEP (O95342 whole entry): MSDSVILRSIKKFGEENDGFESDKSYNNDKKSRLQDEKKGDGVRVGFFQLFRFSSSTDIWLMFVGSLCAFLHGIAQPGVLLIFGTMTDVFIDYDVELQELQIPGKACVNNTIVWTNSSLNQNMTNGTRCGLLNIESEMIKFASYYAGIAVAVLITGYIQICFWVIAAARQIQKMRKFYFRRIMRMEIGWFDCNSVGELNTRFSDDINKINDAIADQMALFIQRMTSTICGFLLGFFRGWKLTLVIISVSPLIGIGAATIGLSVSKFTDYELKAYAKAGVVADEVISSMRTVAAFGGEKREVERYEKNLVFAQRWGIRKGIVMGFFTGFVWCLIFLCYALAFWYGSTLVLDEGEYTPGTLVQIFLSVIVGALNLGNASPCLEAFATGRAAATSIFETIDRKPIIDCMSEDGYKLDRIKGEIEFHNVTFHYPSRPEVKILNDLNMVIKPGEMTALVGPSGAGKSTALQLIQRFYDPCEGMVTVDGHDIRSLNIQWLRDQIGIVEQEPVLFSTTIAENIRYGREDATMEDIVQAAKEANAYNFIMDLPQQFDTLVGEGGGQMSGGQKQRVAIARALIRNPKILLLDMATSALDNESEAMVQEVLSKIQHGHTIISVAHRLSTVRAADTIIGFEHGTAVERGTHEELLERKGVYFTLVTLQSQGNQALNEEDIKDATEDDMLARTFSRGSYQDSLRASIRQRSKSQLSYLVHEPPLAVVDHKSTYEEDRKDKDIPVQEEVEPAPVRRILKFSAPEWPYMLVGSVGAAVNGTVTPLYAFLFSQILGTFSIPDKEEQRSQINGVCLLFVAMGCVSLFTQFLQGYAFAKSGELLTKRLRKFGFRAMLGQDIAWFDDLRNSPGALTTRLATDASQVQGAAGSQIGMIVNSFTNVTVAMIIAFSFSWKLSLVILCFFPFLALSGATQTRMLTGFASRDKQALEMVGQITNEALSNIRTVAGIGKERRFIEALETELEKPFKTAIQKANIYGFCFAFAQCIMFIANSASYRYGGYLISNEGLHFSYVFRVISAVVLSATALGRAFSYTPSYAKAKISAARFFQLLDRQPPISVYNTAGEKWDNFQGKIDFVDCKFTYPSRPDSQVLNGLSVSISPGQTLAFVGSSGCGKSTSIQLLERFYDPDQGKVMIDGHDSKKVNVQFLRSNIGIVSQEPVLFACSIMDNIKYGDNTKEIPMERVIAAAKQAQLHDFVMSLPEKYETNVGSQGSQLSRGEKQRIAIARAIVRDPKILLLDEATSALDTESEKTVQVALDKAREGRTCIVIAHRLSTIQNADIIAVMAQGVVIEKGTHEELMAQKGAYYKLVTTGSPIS
Sequence of Bile salt export pump (O95342 whole entry): as above

## Cc1nc(-c2onc(C)c2NC(=O)O[C@H](C)c2ccccc2Cl)ccc1NC(=O)[C@H]1CCCC[C@@H]1C(=O)O
[1]
  chromatographic logD: 1.76
[2]
  microsomal CLint at 0.5 µM: 7 µL/min/mg
BSEP
  inhibition at 50 µM: 50%
[3]
  solubility: 505 µM (≈ 273 µg/mL)
[4]
  Drug uptake: Active
Bile salt export pump
  IC50: 39.8 µM
Mus musculus
  ED50: 0.04 mg/kg
[5]
  IC50: 12.6 µM
[6]
  IC50: 251 µM
[7]
  IC50: > 200 µM
[8]
  IC50: 25.1 µM
[9]
  IC50: 7.94 µM
[10]
  Activity: Non-toxic
[11]
  Activity: Toxic
[12]
  Activity: Toxic
[13]
  Activity: Toxic
[14]
  Activity: Toxic
[15]
  Activity: Toxic
[16]
  Activity: Toxic
[17]
  clearance: 0.104 L/h/kg
[18]
  Vd: 0.16 L/kg
[19]
  half-life: 1.84 h
[20]
  fAUClast: 3675 h/ng/mL
[21]
  Tlast: 24 h
[22]
  Cmax: 41.3 µg/mL
[23]
  AUClast: 123000 h/ng/mL
[24]
  fAUClast: 4624 h/ng/mL
[25]
  Tlast: 24 h
